Measurements as given in patent US6515010B1 (SmithKline Beecham Corporation, priority 1999, dated 2003).
Values after ≈ are worked out from the molar mass of the structure shown.

Legend:
[1] = pKa of carvedilol free base; format: physicochemical
[2] = physchem; details: 25 °C, water, thermodynamic from solid
[3] = physchem
[4] = Aqueous solubility at 25° C. of carvedilol and its salt forms; details: water

| Compound | pKa [1] | solubility at 1 hr [2] | solubility at 24 hr [2] | solubility ([3]; pH 4, aqueous buffer) | solubility ([3]; pH 9, aqueous buffer) | aqueous solubility (in words) [4] | Aqueous Solubility ([4]; time 0.5 hr) | Aqueous Solubility ([4]; time 1 hr) | Aqueous Solubility ([4]; time 4 hr) | Aqueous Solubility ([4]; time 70 hr) |
| --- | --- | --- | --- | --- | --- | --- | --- | --- | --- | --- |
| COc1ccccc1OCCNCC(O)COc1cccc2[nH]c3ccccc3c12 (stereo not shown) [Carvedilol] | 7.6 | 9.8 µg/mL (≈ 24.1 µM) | 11.6 µg/mL (≈ 28.5 µM) | ~200 µg/mL (≈ 492 µM) | < 1 µg/mL |  |  |  |  |  |
| Hydrochloride |  |  |  |  |  | poorly soluble in water | 1650 µg/mL | 1630 µg/mL | 1370 µg/mL | 1060 µg/mL |
